Experimental data: patent publication US20240398813A1, “PHARMACEUTICAL COMPOSITION FOR PREVENTING OR TREATING OVERACTIVE BLADDER” (GWANGJU INSTITUTE OF SCIENCE AND TECHNOLOGY, priority 2021, published 2024)
Values joined by “and” are separate entries in the source; they are usually repeats but may differ in a detail not shown here. Equal values may be shown once.

How the values were obtained:
[1] = target: T1, hyperactive mutant BKCa channels (hSlo G803D/N806K) stably expressed in AD 293 cells (Homo sapiens, UniProt Q12791, G856D/N859K); test: Cell-based fluorescence assay (FluxOR Potassium Ion Channel Assay) of BKCa channel activation; design: key to Channel activity increase for 80 s (ΔRFU) at 6 μM: ratio of ΔRFU (RFU at 100 s − 20 s) to the same ΔRFU for vehicle; details: for Initial velocity of channel activation for 4 s (vi) at 6 μM: first 4 s after channel stimulation; for Channel activity increase for 80 s (ΔRFU) at 6 μM: normalized by vehicle; for EC50: fit of dose-response curve of initial rates, read-out: Apparent EC50 based on vi; for activation effect on the BKCa channels at a single concentration: 3 μM
T1 construct: expressed in transfected cells
Experimental: AD 293 cells, which are derivatives of the commonly used HEK 293 cell line and stably express hyperactive mutant BKCa channels (hSlo G803D/N806K) to sensitively detect the effect (Lee et al., 2013), were cultured in Dulbecco' modified Eagle medium (Hyclone, Logan, Utah, […]) supplemented with 10% fetal bovine serum, and selected with 1 mg/mL Geneticin (Gibco, Amarillo, TX, USA). 20,000 cells per well were seeded on a 96-well clear-bottom black plate (Corning, New York, NY, USA) coated with poly-D-lysine (Gibco). BKCa channel activity was measured using the cell-based fluorescence assay, FluxOR Potassium Ion Channel Assay (Thermo Fisher Scientific, Waltham, MA, USA). Experimental procedures were performed according to the manufacturer's instructions. The cells were treated with test compounds dissolved in assay buffer for 15 minutes. Fluorescence was measured using a FlexStation3 multimode microplate reader (Molecular Devices, Silicon Valley, CA, USA) and SoftMax Pro (Molecular Devices). Excitation and emission wavelengths were set to 485 nm and 528 nm, respectively. Fluorescence signals were acquired every 2 seconds for 120 seconds and normalized by the relative fluorescence unit (RFU). The efficacy of a channel activator was determined by analyzing changes (ΔRFU) in the RFU for 80 seconds after channel stimulation.
Activation effects of the synthesized compounds on BKCa channels were evaluated using cell-based fluorescence assay. NS11021 was used as the positive control. The effects were determined based on the initial rate (vi) of channel activation and the apparent EC50 value obtained from fitting data of the dose-response curve. Here, Vi means change values for 4 seconds at the start of channel opening (vi={RFU(t=24 s)−RFU(t=20 s)}/4 s). […]

[2] = target: T1, hyperactive mutant BKCa channels (hSlo G803D/N806K) stably expressed in AD 293 cells; test: as above; details: compounds at 5 μM; n=3; vehicle 0.26

T1 sequence (Q12791 whole entry G856D/N859K): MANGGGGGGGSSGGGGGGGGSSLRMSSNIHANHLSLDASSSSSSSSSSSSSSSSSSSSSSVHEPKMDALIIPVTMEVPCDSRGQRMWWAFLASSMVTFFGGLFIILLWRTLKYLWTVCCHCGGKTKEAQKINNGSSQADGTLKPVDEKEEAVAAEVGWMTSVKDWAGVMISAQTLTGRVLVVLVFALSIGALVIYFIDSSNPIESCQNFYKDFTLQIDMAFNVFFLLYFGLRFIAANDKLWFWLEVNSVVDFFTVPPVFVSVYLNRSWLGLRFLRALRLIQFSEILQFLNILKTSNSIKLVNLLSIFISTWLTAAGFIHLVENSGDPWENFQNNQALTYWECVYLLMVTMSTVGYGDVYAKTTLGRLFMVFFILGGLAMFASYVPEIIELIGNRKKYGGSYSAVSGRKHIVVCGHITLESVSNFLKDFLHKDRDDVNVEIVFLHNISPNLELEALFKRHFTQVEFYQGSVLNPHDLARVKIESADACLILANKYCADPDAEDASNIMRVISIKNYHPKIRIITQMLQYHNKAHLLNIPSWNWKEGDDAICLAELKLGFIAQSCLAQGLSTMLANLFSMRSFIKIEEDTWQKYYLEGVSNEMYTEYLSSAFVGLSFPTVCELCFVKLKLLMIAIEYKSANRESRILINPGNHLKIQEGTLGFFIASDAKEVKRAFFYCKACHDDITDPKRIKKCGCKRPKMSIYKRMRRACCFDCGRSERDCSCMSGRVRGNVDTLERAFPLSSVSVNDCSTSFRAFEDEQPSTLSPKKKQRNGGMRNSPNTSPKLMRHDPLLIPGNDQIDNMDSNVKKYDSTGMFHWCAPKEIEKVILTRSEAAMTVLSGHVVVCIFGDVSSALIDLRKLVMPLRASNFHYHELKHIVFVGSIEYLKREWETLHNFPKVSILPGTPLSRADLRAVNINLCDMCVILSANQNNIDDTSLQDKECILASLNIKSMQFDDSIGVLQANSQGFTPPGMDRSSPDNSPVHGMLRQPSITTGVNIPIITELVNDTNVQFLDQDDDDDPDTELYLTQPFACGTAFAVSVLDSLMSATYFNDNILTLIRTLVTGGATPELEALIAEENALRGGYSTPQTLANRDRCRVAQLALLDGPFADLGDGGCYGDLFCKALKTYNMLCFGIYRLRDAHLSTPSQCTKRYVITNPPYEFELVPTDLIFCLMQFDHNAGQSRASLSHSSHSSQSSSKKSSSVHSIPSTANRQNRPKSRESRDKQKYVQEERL

Structure (SMILES): Cc1ccccc1NC(=O)c1sc(=S)n2c1[nH]c(=O)c1cc(Br)ccc12 [Compound 201, 7-bromo-5-oxo-1-thioxo-N-(o-tolyl)-4,5-dihydro-1H-thiazolo[3,4-a]quinazoline-3-carboxamide]
- Initial velocity of channel activation for 4 s (vi) at 6 μM [1]: 9.40 s⁻¹
- Channel activity increase for 80 s (ΔRFU) at 6 μM [1]: 3.68
- EC50 [1]: 4.6 µM

Structure (SMILES): CCOC(=O)c1ccc(NC(=O)c2sc(=S)n3c2[nH]c(=O)c2ccc(Cl)cc23)cc1 [TTQC-3, ethyl 4-(8-chloro-5-oxo-1-thioxo-4,5-dihydro-1H-thiazolo[3,4-a]quinazoline-3-carboxamido)benzoate]
- Activity (ΔRFU normalized by activities of LDD175) [2]: 0.96

Structure (SMILES): O=C(Nc1cccc(Cl)c1)c1sc(=S)n2c1[nH]c(=O)c1cc(Br)ccc12 [Compound 207, 7-bromo-N-(3-chlorophenyl)-5-oxo-1-thioxo-4,5-dihydro-1H-thiazolo[3,4-a]quinazoline-3-carboxamide]
- Initial velocity of channel activation for 4 s (vi) at 6 μM [1]: 16.12 s⁻¹
- Channel activity increase for 80 s (ΔRFU) at 6 μM [1]: 3.56
- EC50 [1]: 4.85 µM

Structure (SMILES): NC(=O)c1sc(=S)n2c1[nH]c(=O)c1ccccc12 [Compound 4, 5-oxo-1-thioxo-4,5-dihydro-1H-thiazolo[3,4-a]quinazoline-3-carboxamide]
- Initial velocity of channel activation for 4 s (vi) at 6 μM [1]: 0.32 s⁻¹
- Channel activity increase for 80 s (ΔRFU) at 6 μM [1]: 0.96

Structure (SMILES): CCc1ccccc1NC(=O)c1sc(=S)n2c1[nH]c(=O)c1cc3c(cc12)OCO3 [TTQC-19, N-(2-ethylphenyl)-5-oxo-1-thioxo-4,5-dihydro-1H-[1,3]dioxolo[4,5-g]thiazolo[3,4-a]quinazoline-3-carboxamide]
- Activity (ΔRFU normalized by activities of LDD175) [2]: 0.62

Structure (SMILES): COc1cccc(NC(=O)c2sc(=S)n3c2[nH]c(=O)c2cc(Br)ccc23)c1 [Compound 204, 7-bromo-N-(3-methoxyphenyl)-5-oxo-1-thioxo-4,5-dihydro-1H-thiazolo[3,4-a]quinazoline-3-carboxamide]
- Initial velocity of channel activation for 4 s (vi) at 6 μM [1]: 6.00 s⁻¹
- Channel activity increase for 80 s (ΔRFU) at 6 μM [1]: 3.35
- EC50 [1]: 6.6 µM

Structure (SMILES): O=C(NCC1CCCO1)c1sc(=S)n2c1[nH]c(=O)c1cc(Br)ccc12 (stereo not shown) [TTQC-16, 7-bromo-5-oxo-N-((tetrahydrofuran-2-yl)methyl)-1-thioxo-4,5-dihydro-1H-[1,3]thiazolo[3,4-a]quinazoline-3-carboxamide]
- Activity (ΔRFU normalized by activities of LDD175) [2]: 0.64

Structure (SMILES): COc1ccc(OC)c(NC(=O)c2sc(=S)n3c2[nH]c(=O)c2ccc(Cl)cc23)c1 [TTQC-34, 8-chloro-N-(2,5-dimethoxyphenyl)-5-oxo-1-thioxo-4,5-dihydro-1H-thiazolo[3,4-a]quinazoline-3-carboxamide]
- Activity (ΔRFU normalized by activities of LDD175) [2]: 0.31

Structure (SMILES): O=C(Nc1ccccc1)c1sc(=S)n2c1[nH]c(=O)c1ccc(Cl)cc12 [Compound 103, 8-chloro-5-oxo-N-phenyl-1-thioxo-4,5-dihydro-1H-thiazolo[3,4-a]quinazoline-3-carboxamide]
- Channel activity increase for 80 s (ΔRFU) at 6 μM [1]: 1.56

Structure (SMILES): Cc1ccc(NC(=O)c2sc(=S)n3c2[nH]c(=O)c2cc(Cl)ccc23)c(C)c1 [TTQC-9, 7-chloro-N-(2,4-dimethylphenyl)-5-oxo-1-thioxo-4,5-dihydro-1H-thiazolo[3,4-a]quinazoline-3-carboxamide]
- Activity (ΔRFU normalized by activities of LDD175) [2]: 0.84

Structure (SMILES): O=C(Nc1cc(C(F)(F)F)cc(C(F)(F)F)c1)c1sc(=S)n2c1[nH]c(=O)c1cc(Br)ccc12 [Compound 210, N-(3,5-bis(trifluoromethyl)phenyl)-7-bromo-5-oxo-1-thioxo-4,5-dihydro-1H-thiazolo[3,4-a]quinazoline-3-carboxamide]
- Initial velocity of channel activation for 4 s (vi) at 6 μM [1]: 2.08 s⁻¹
- Channel activity increase for 80 s (ΔRFU) at 6 μM [1]: 2.28
- EC50 [1]: 17.3 µM

Structure (SMILES): O=C(Nc1ccccc1)c1sc(=S)n2c1[nH]c(=O)c1cc(Cl)ccc12 [Compound 106, 7-chloro-5-oxo-N-phenyl-1-thioxo-4,5-dihydro-1H-thiazolo[3,4-a]quinazoline-3-carboxamide]
- Initial velocity of channel activation for 4 s (vi) at 6 μM [1]: 0.38 s⁻¹
- Channel activity increase for 80 s (ΔRFU) at 6 μM [1]: 1.18

Structure (SMILES): O=C(Nc1cccc(OC(F)(F)F)c1)c1sc(=S)n2c1[nH]c(=O)c1cc(Br)ccc12 [Compound 209, 7-bromo-5-oxo-1-thioxo-N-(3-(trifluoromethoxy)phenyl)-4,5-dihydro-1H-thiazolo[3,4-a]quinazoline-3-carboxamide]
- Initial velocity of channel activation for 4 s (vi) at 6 μM [1]: 14.78 s⁻¹
- Channel activity increase for 80 s (ΔRFU) at 6 μM [1]: 4.37
- EC50 [1]: 3.82 µM

Structure (SMILES): O=C(Nc1cccc(F)c1)c1sc(=S)n2c1[nH]c(=O)c1cc(Br)ccc12 [Compound 206, 7-bromo-N-(3-fluorophenyl)-5-oxo-1-thioxo-4,5-dihydro-1H-thiazolo[3,4-a]quinazoline-3-carboxamide]
- BKCa activity [1]: significant improvement
- Initial velocity of channel activation for 4 s (vi) at 6 μM [1]: 12.55 s⁻¹
- Channel activity increase for 80 s (ΔRFU) at 6 μM [1]: 2.85
- EC50 [1]: 1.14 µM

Structure (SMILES): FC(F)(F)c1cc(NC(=S)Nc2ccc(Br)cc2-c2nn[nH]n2)cc(C(F)(F)F)c1 [NS11021, reference compound]
- activation effect on the BKCa channels at a single concentration [1]: significant activation effects
- Initial velocity of channel activation for 4 s (vi) at 6 μM [1]: 1.63 s⁻¹
- Channel activity increase for 80 s (ΔRFU) at 6 μM [1]: 1.86
- EC50 [1]: 14.9 µM and 14.3 µM

Structure (SMILES): Cc1ccc2c(=O)[nH]c3c(C(=O)Nc4ccccc4)sc(=S)n3c2c1 [Compound 102, 8-methyl-5-oxo-N-phenyl-1-thioxo-4,5-dihydro-1H-thiazolo[3,4-a]quinazoline-3-carboxamide]
- Initial velocity of channel activation for 4 s (vi) at 6 μM [1]: 0.23 s⁻¹
- Channel activity increase for 80 s (ΔRFU) at 6 μM [1]: 1.06

Structure (SMILES): O=C(Nc1ccccc1)c1sc(=S)n2c1[nH]c(=O)c1ccccc12 [Compound 101, 5-oxo-N-phenyl-1-thioxo-4,5-dihydro-1H-thiazolo[3,4-a]quinazoline-3-carboxamide]
- Initial velocity of channel activation for 4 s (vi) at 6 μM [1]: 0.42 s⁻¹
- Channel activity increase for 80 s (ΔRFU) at 6 μM [1]: 1.03

Structure (SMILES): O=C(O)c1sc(=S)n2c1[nH]c(=O)c1ccccc12 [Compound 3, 5-oxo-1-thioxo-4,5-dihydro-1H-thiazolo[3,4-a]quinazoline-3-carboxylic acid]
- Initial velocity of channel activation for 4 s (vi) at 6 μM [1]: 0.38 s⁻¹
- Channel activity increase for 80 s (ΔRFU) at 6 μM [1]: 1.38
- EC50 [1]: 12.7 µM

Structure (SMILES): C=C(C)[C@H](CC=C(C)C)Cc1c(O)cc(OC)c2c1O[C@H](c1ccc(O)cc1O)CC2=O [kurarinone, reference compound]
- activation effect on the BKCa channels at a single concentration [1]: significant activation effects

Structure (SMILES): O=C(Nc1ccccc1)c1sc(=S)n2c1[nH]c(=O)c1ccc(Br)cc12 [Compound 104, 8-bromo-5-oxo-N-phenyl-1-thioxo-4,5-dihydro-1H-thiazolo[3,4-a]quinazoline-3-carboxamide]
- Channel activity increase for 80 s (ΔRFU) at 6 μM [1]: 1.25

Structure (SMILES): O=C(Nc1cccc(O)c1)c1sc(=S)n2c1[nH]c(=O)c1cc(Br)ccc12 [Compound 205, 7-bromo-N-(3-hydroxyphenyl)-5-oxo-1-thioxo-4,5-dihydro-1H-thiazolo[3,4-a]quinazoline-3-carboxamide]
- Initial velocity of channel activation for 4 s (vi) at 6 μM [1]: 4.03 s⁻¹
- Channel activity increase for 80 s (ΔRFU) at 6 μM [1]: 4.88
- EC50 [1]: 11.2 µM

Structure (SMILES): O=C(Nc1ccccc1)c1sc(=S)n2c1[nH]c(=O)c1cc(Br)ccc12 [Compound 107, 7-bromo-5-oxo-N-phenyl-1-thioxo-4,5-dihydro-1H-thiazolo[3,4-a]quinazoline-3-carboxamide]
- Initial velocity of channel activation for 4 s (vi) at 6 μM [1]: 5.51 s⁻¹
- Channel activity increase for 80 s (ΔRFU) at 6 μM [1]: 3.83
- EC50 [1]: 12.3 µM

Structure (SMILES): Cc1ccc2c(c1)c(=O)[nH]c1c(C(=O)Nc3ccccc3)sc(=S)n12 [Compound 105, 7-methyl-5-oxo-N-phenyl-1-thioxo-4,5-dihydro-1H-thiazolo[3,4-a]quinazoline-3-carboxamide]
- Initial velocity of channel activation for 4 s (vi) at 6 μM [1]: 0.32 s⁻¹
- Channel activity increase for 80 s (ΔRFU) at 6 μM [1]: 1.16

Structure (SMILES): CC(=O)c1c(O)c(C)c(O)c(Cc2c(O)c3c(c(C(=O)/C=C/c4ccccc4)c2O)OC(C)(C)C=C3)c1O [rottlerin, reference compound]
- activation effect on the BKCa channels at a single concentration [1]: significant activation effects

Structure (SMILES): Cc1ccc(NC(=O)c2sc(=S)n3c2[nH]c(=O)c2cc(Br)ccc23)cc1 [Compound 203, 7-bromo-5-oxo-1-thioxo-N-(p-tolyl)-4,5-dihydro-1H-thiazolo[3,4-a]quinazoline-3-carboxamide]
- Initial velocity of channel activation for 4 s (vi) at 6 μM [1]: 0.71 s⁻¹
- Channel activity increase for 80 s (ΔRFU) at 6 μM [1]: 1.41

Structure (SMILES): O=C(NCc1ccccc1)c1sc(=S)n2c1[nH]c(=O)c1ccccc12 [Compound 5, N-benzyl-5-oxo-1-thioxo-4,5-dihydro-1H-thiazolo[3,4-a]quinazoline-3-carboxamide]
- Initial velocity of channel activation for 4 s (vi) at 6 μM [1]: 0.26 s⁻¹
- Channel activity increase for 80 s (ΔRFU) at 6 μM [1]: 1.10
